The structures appear in SMILES notation.

These results are taken from US20260193268A1, “TRICYCLIC PI3Ka INHIBITOR, PREPARATION METHOD THEREFOR, AND PHARMACEUTICAL USE THEREOF” (WIGEN BIOMEDICINE TECHNOLOGY (SHANGHAI) CO., LTD., priority 2022, published 2026).

The test system of test [1] is MCF-7 cells (with PI3Kα E545K mutation). Description: In vitro inhibition of MCF-7 cell proliferation (CellTiter-Lumi). The test is classed as cell-based. The settings on record: Homo sapiens, MCF7, 144 h, class symbols, read-out: Inhibitory activity against MCF-7 cells (IC50), class symbols. The gist of the method:
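MCF-7 (PI3Kα E545K) seeded at 2000 cells/well; serially diluted compounds added next day and exposed for 144 h. Cellular ATP read by CellTiter-Lumi luminescence; IC50 for growth inhibition calculated.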

The subject of test [2] is HCC1954 cells (with PI3Kα H1047R mutation). The test can be described thus: In vitro inhibition of HCC1954 cell proliferation (CellTiter-Lumi). The test is classed as cell-based. The settings on record: Homo sapiens, HCC1954, 144 h, HCC1954 cells, 144 h, CellTiter-Lumi; class symbols; read-out: Inhibitory activity against HCC1954 cells (IC50), class symbols. As for the experimental part:
Assay for In Vitro Inhibition of HCC1954 Cell Proliferation by Compounds of the Present Disclosure
The growth of the cells was evaluated, and the IC50 for the inhibition of cell growth by the compounds was calculated.

As for `CC(C)(N)C=C(C#N)C(=O)Nc1ccc(N2CC(N3CCN(c4ccc5c(c4)-c4nc(N6C(=O)OC[C@H]6C(F)F)cn4CCO5)CC3)C2)c(Cl)c1` [Compound 351], the IC50 in test [1] and in test [2] was less than 50 nM throughout.

Turning to `CN(C1COC1)C(C)(C)C=C(C#N)C(=O)Nc1ccc(N2CC(N3CCN(c4ccc5c(c4)-c4nc(N6C(=O)OC[C@H]6C(F)F)cn4CCO5)CC3)C2)c(Cl)c1` [Compound 352], the IC50 in test [1] and in test [2] was less than 50 nM each time.

For the molecule `CC(C)(C=C(C#N)C(=O)Nc1ccc(N2CC(N3CCN(c4ccc5c(c4)-c4nc(N6C(=O)OC[C@H]6C(F)F)cn4CCO5)CC3)C2)c(Cl)c1)NC1COC1` [Compound 353], the IC50 in test [1] and in test [2] was less than 50 nM in each case.

With `CC(C)(C=C(C#N)C(=O)Nc1ccc(N2CC(N3CCN(c4ccc5c(c4)-c4nc(N6C(=O)OC[C@H]6C(F)F)cn4CCO5)CC3)C2)c(Cl)c1)N1CCC1` [Compound 354], the IC50 in test [1] and in test [2] was less than 50 nM each time.

Turning to `CC(C)(C)C=C(C#N)C(=O)Nc1ccc(N2CC(N3CCN(c4ccc5c(c4)-c4nc(N6C(=O)OC[C@H]6C(F)F)cn4CCO5)CC3)C2)c(Cl)c1` [Compound 355], the IC50 in test [1] and in test [2] was less than 50 nM throughout.

Consider `CN(C)C/C=C/C(=O)Nc1ccc(N2CC(N3CCN(c4ccc5c(c4)-c4nc(N6C(=O)OC[C@H]6C(F)F)cn4CCO5)CC3)C2)c(Cl)c1` [Compound 356], for which the IC50 in test [1] and in test [2] was less than 50 nM each time.

In the case of `CC(=O)NC(C)(C)C=C(C#N)C(=O)Nc1ccc(N2CC(N3CCN(c4ccc5c(c4)-c4nc(N6C(=O)OC[C@H]6C(F)F)cn4CCO5)CC3)C2)c(Cl)c1` [Compound 357], the IC50 in test [1] and in test [2] was less than 50 nM in each case.

As for `CC(C)(C=C(C#N)C(=O)Nc1ccc(N2CC(N3CCN(c4ccc5c(c4)-c4nc(N6C(=O)OC[C@H]6C(F)F)cn4CCO5)CC3)C2)cc1Cl)NC(=O)OC(C)(C)C` [Compound 358], the IC50 in test [1] and in test [2] was less than 50 nM throughout.

With `CNC(C)(C)C=C(C#N)C(=O)Nc1ccc(N2CC(N3CCN(c4ccc5c(c4)-c4nc(N6C(=O)OC[C@H]6C(F)F)cn4CCO5)CC3)C2)cc1Cl` [Compound 359], the IC50 in test [1] and in test [2] was less than 50 nM throughout.

`CC(C)(N)C=C(C#N)C(=O)Nc1ccc(N2CC(N3CCN(c4ccc5c(c4)-c4nc(N6C(=O)OC[C@H]6C(F)F)cn4CCO5)CC3)C2)cc1Cl` [Compound 360]: the IC50 in test [1] and in test [2] was less than 50 nM in each case.

With `CN(C1COC1)C(C)(C)C=C(C#N)C(=O)Nc1ccc(N2CC(N3CCN(c4ccc5c(c4)-c4nc(N6C(=O)OC[C@H]6C(F)F)cn4CCO5)CC3)C2)cc1Cl` [Compound 361], the IC50 in test [1] and in test [2] was less than 50 nM each time.

Regarding `CC(C)(C=C(C#N)C(=O)Nc1ccc(N2CC(N3CCN(c4ccc5c(c4)-c4nc(N6C(=O)OC[C@H]6C(F)F)cn4CCO5)CC3)C2)cc1Cl)NC1COC1` [Compound 362], the IC50 in test [1] and in test [2] was less than 50 nM throughout.

As for `CC(C)(C=C(C#N)C(=O)Nc1ccc(N2CC(N3CCN(c4ccc5c(c4)-c4nc(N6C(=O)OC[C@H]6C(F)F)cn4CCO5)CC3)C2)cc1Cl)N1CCC1` [Compound 363], the IC50 in test [1] and in test [2] was less than 50 nM each time.

Regarding `CC(C)(C)C=C(C#N)C(=O)Nc1ccc(N2CC(N3CCN(c4ccc5c(c4)-c4nc(N6C(=O)OC[C@H]6C(F)F)cn4CCO5)CC3)C2)cc1Cl` [Compound 364], the IC50 in test [1] and in test [2] was less than 50 nM in each case.

Regarding `CN(C)C/C=C/C(=O)Nc1ccc(N2CC(N3CCN(c4ccc5c(c4)-c4nc(N6C(=O)OC[C@H]6C(F)F)cn4CCO5)CC3)C2)cc1Cl` [Compound 365], the IC50 in test [1] and in test [2] was less than 50 nM each time.

Regarding `CC(=O)NC(C)(C)C=C(C#N)C(=O)Nc1ccc(N2CC(N3CCN(c4ccc5c(c4)-c4nc(N6C(=O)OC[C@H]6C(F)F)cn4CCO5)CC3)C2)cc1Cl` [Compound 366], the IC50 in test [1] and in test [2] was less than 50 nM throughout.

Take `Cc1nc(-c2cn3c(n2)-c2cc(N4CCN(C5CN(c6ccc(NC(=O)C(C#N)=CC(C)(C)C)cc6F)C5)CC4)ccc2OCC3)n(C(C)C)n1` [Compound 367]: the IC50 in test [1] and in test [2] was less than 50 nM throughout.

With `Cc1nc(-c2cn3c(n2)-c2cc(N4CCN(C5CN(c6ccc(NC(=O)C(C#N)=CC(C)(C)C)cn6)C5)CC4)ccc2OCC3)n(C(C)C)n1` [Compound 368], the IC50 in test [1] and in test [2] was less than 50 nM each time.

As for `Cc1nc(-c2cn3c(n2)-c2cc(N4CCN(C5CN(c6ccc(NC(=O)C(C#N)=CC(C)(C)C)cc6Cl)C5)CC4)ccc2OCC3)n(C(C)C)n1` [Compound 369], the half-maximal inhibitory concentration (IC50) in test [1] and in test [2] was less than 50 nM each time.

As for `Cc1nc(-c2cn3c(n2)-c2cc(N4CCN(C5CN(c6ccc(NC(=O)C(C#N)=CC(C)(C)C)c(Cl)c6)C5)CC4)ccc2OCC3)n(C(C)C)n1` [Compound 370], the IC50 in test [1] and in test [2] was less than 50 nM in each case.

For `CC(C)n1ncnc1-c1cn2c(n1)-c1cc(N3CCN(C4CN(c5ccc(NC(=O)C(C#N)=CC(C)(C)C)cn5)C4)CC3)ccc1OCC2` [Compound 371], the IC50 in test [1] and in test [2] was less than 50 nM in each case.

On to `Cc1nc(-c2cn3c(n2)-c2cc(N4CCN(C5CN(c6ccc(NC(=O)C(C#N)=CC(C)(C)NC(=O)OC(C)(C)C)cn6)C5)CC4)ccc2OCC3)n(C(C)C)n1` [Compound 372], for which the IC50 in test [1] and in test [2] was less than 50 nM in each case.

`Cc1nc(-c2cn3c(n2)-c2cc(N4CCN(C5CN(c6ccc(NC(=O)C(C#N)=CC(C)(C)NC(=O)OC(C)(C)C)cc6Cl)C5)CC4)ccc2OCC3)n(C(C)C)n1` [Compound 373]: the IC50 in test [1] and in test [2] was less than 50 nM in each case.

Take `Cc1nc(-c2cn3c(n2)-c2cc(N4CCN(C5CN(c6ccc(NC(=O)C(C#N)=CC(C)(C)NC(=O)OC(C)(C)C)cc6F)C5)CC4)ccc2OCC3)n(C(C)C)n1` [Compound 374]: the IC50 in test [1] and in test [2] was less than 50 nM throughout.

As for `CC(=O)NC(C)(C)C=C(C#N)C(=O)Nc1ccc(N2CC(N3CCN(c4ccc5c(c4)-c4nc(-c6nc(C)nn6C(C)C)cn4CCO5)CC3)C2)cc1` [Compound 375], the IC50 in test [1] and in test [2] was less than 50 nM throughout.

Regarding `C=CC(=O)Nc1ccc(N2CC(N3CCN(c4ccc5c(c4)-c4nc(-c6nc(C)nn6C(C)C)cn4CCO5)CC3)C2)c(F)c1` [Compound 376], the IC50 in test [1] and in test [2] was less than 50 nM each time.

For the molecule `C=CC(=O)Nc1ccc(N2CC(N3CCN(c4ccc5c(c4)-c4nc(-c6nc(C)nn6C(C)C)cn4CCO5)CC3)C2)cc1Cl` [Compound 377], the IC50 in test [1] and in test [2] was less than 50 nM in each case.

In the case of `C=CC(=O)Nc1ccc(N2CC(N3CCN(c4ccc5c(c4)-c4nc(-c6nc(C)nn6C(C)C)cn4CCO5)CC3)C2)nc1` [Compound 379], the IC50 in test [1] and in test [2] was less than 50 nM throughout.

In the case of `CC(C)(C=C(C#N)C(=O)Nc1ccc(N2CC(N3CCN(c4ccc5c(c4)-c4nc(N6C(=O)OC[C@H]6C(F)F)cn4CCO5)CC3)C2)cc1)NC1(C)COC1` [Compound 380], the 50% inhibitory concentration (IC50) in test [1] and in test [2] was less than 50 nM in each case.

Regarding `CC(C)(C=C(C#N)C(=O)Nc1ccc(N2CC(N3CCN(c4ccc5c(c4)-c4nc(N6C(=O)OC[C@H]6C(F)F)cn4CCO5)CC3)C2)cc1)NCC1COC1` [Compound 381], the IC50 in test [1] and in test [2] was less than 50 nM throughout.

Regarding `CC(C)(C=C(C#N)C(=O)Nc1ccc(N2CC(N3CCN(c4ccc5c(c4)-c4nc(N6C(=O)OC[C@H]6C(F)F)cn4CCO5)CC3)C2)cc1)NCC1CCO1` (stereo partly drawn) [Compound 382], the IC50 in test [1] and in test [2] was less than 50 nM in each case.

Regarding `CC(C)(C=C(C#N)C(=O)Nc1ccc(N2CC(N3CCN(c4ccc5c(c4)-c4nc(N6C(=O)OC[C@H]6C(F)F)cn4CCO5)CC3)C2)cc1)NCCO` [Compound 383], the half-inhibitory concentration (IC50) in test [1] and in test [2] was less than 50 nM in each case.

In the case of `CC(C)(C=C(C#N)C(=O)Nc1ccc(N2CC(N3CCN(c4ccc5c(c4)-c4nc(N6C(=O)OC[C@H]6C(F)F)cn4CCO5)CC3)C2)c(F)c1)NC1(C)COC1` [Compound 384], the IC50 in test [1] and in test [2] was less than 50 nM in each case.

Regarding `CC(C)(C=C(C#N)C(=O)Nc1ccc(N2CC(N3CCN(c4ccc5c(c4)-c4nc(N6C(=O)OC[C@H]6C(F)F)cn4CCO5)CC3)C2)c(Cl)c1)NC1(C)COC1` [Compound 385], the IC50 in test [1] and in test [2] was less than 50 nM each time.

Regarding `CC(C)(C=C(C#N)C(=O)Nc1ccc(N2CC(N3CCN(c4ccc5c(c4)-c4nc(N6C(=O)OC[C@H]6C(F)F)cn4CCO5)CC3)C2)nc1)NC1(C)COC1` [Compound 386], the IC50 in test [1] and in test [2] was less than 50 nM in each case.

Consider `CCC(C=C(C#N)C(=O)Nc1ccc(N2CC(N3CCN(c4ccc5c(c4)-c4nc(N6C(=O)OC[C@H]6C(F)F)cn4CCO5)CC3)C2)cc1)(CC)NC1COC1` [Compound 387], for which the IC50 in test [1] and in test [2] was less than 50 nM in each case.

Turning to `N#CC(=CC1(NC2COC2)CCC1)C(=O)Nc1ccc(N2CC(N3CCN(c4ccc5c(c4)-c4nc(N6C(=O)OC[C@H]6C(F)F)cn4CCO5)CC3)C2)cc1` [Compound 388], the IC50 in test [1] and in test [2] was less than 50 nM in each case.

As to `CCC(C=C(C#N)C(=O)Nc1ccc(N2CC(N3CCN(c4ccc5c(c4)-c4nc(N6C(=O)OC[C@H]6C(F)F)cn4CCO5)CC3)C2)cc1)(CC)CC` [Compound 389], the IC50 in test [1] and in test [2] was less than 50 nM each time.

As for `CC1(C=C(C#N)C(=O)Nc2ccc(N3CC(N4CCN(c5ccc6c(c5)-c5nc(N7C(=O)OC[C@H]7C(F)F)cn5CCO6)CC4)C3)cc2)CCC1` [Compound 390], the IC50 in test [1] and in test [2] was less than 50 nM in each case.
